Each structure is given as a SMILES string. Values after ≈ are worked out from the molar mass of the structure shown. Peptide text beside a SMILES is read from it. * marks the point of attachment. FITC = O=C1OC2(c3ccc(O)cc3Oc3cc(O)ccc32)c2ccc(NC(=S)*)cc21 Some results are limits rather than exact numbers.

Common to all, as to assay type: cell-based, Escherichia coli
Experiment [1] concerns E. coli O157. The settings on record: HPLC-purified peptide. The source says:
In order to investigate whether APR redundancy does result in proteostatic collapse, we selected resynthesized and high-performance liquid chromatography (HPLC)-purified four positive peptides from the screen, P2, P5, P14, and P105, as well as three negative peptides, P3, P4, and P11, and confirmed their MIC and minimum bactericidal concentration (MBC) values (Table 1). […] These IBs, which are also called large polar aggregates, could be stained with pentameric formyl thiophene acetic acid (pFTAA, Fig. 1j and supplementary Fig. 3), an extensively characterized amyloid-specific dye[20]–[22], which specifically binds to amyloid-like aggregates as well as disease-associated protein IBs[22]. This IB-staining pattern could be observed for all bactericidal peptides, but not for any of the other peptides, although some other pFTAA-positive structures could be discerned (Supplementary Fig. 3). We confirmed the cross-β-structure content of IB using thioflavin-T staining and correlative atomic force microscopy nanoimaging and Fourier transform infrared spectroscopy (Supplementary Note 2 and Supplementary Fig. 4).

Experiment [2] relates to E. coli O157:H7. The experiment can be described thus: Flow cytometry of bacteria treated with FITC peptides (uptake) and propidium iodide. The settings on record: for cells positive for FITC (peptide uptake): E. coli O157:H7, FITC-labeled peptide at MIC, flow cytometry; for PI-positive cells (membrane permeabilization): E. coli O157:H7, peptide at MIC, N = 4. The method, then: Using a double staining technique with propidium iodide (PI) and FITC peptides, killing rate and peptide uptake were evaluated in a two-dimensional analysis. Briefly, end-exponential growth phase E. coli O157 cells (10^8 CFU/mL) were washed with PBS and treated with peptides (P2 or Pro2/ FITC labeled) at MIC value for different time periods. Treated bacteria were again washed with PBS buffer three times. One microliter of PI (Invitrogen) was added to the bacteria, and after incubation for 5 min, the mixture was aliquoted (500 µL) into FACS tubes. To correlate the activity of the peptides with cell death, the fluorescence intensity was measured in two channels using the Gallios^TM Flow Cytometer, PI: excitation 536 nm and emission 617 nm, FITC: excitation 490 nm and emission 525 nm. Heated bacteria at 90 °C for 10 min were used as PI-positive control.
Background: In flow cytometry, cells or beads pass a laser one at a time.

In experiment [3] the test system is E. coli O157:H7. The following applies: E. coli O157(:H7); HPLC-purified peptide; broth microdilution (EUCAST), LB, overnight 37 °C, OD 590 nm. The method, then:
The MICs of active peptides were determined via the Broth microdilution assay according to the EUCAST guideline, which was performed in 96-well polystyrene flat bottom microtiter plates (BD Biosciences). Briefly, a single colony was inoculated into 5 mL LB medium and grown to the end-exponential growth phase in a shaking incubator at 37 °C. Cultures were subsequently diluted to an OD600 (optical density) of 0.002 ([…]) in fresh LB medium. One hundred microliters of LB medium with different concentration of peptides ranging from 100 to 0.75 µg/mL were serially diluted to the sterile 96-well plate (at least three wells in each plate). Afterwards, 100 µL of the diluted bacteria were pipetted into 96-well plates containing different concentration of peptides. In each plate, the grown bacteria with the maximum concentration of carrier and medium were considered as positive and negative controls, respectively. Thereafter, 96-well plates were statically incubated overnight at 37 °C to allow bacterial growth. OD was measured at 590 nm for 1 s using a multipurpose ultraviolet–visible plate reader, and the absorbance of the growth bacteria was measured using a Perkin Elmer spectrophotometer (1420 Multilabel Counter Victor 3).
On the technique in general: Dilution methods test growth across graded concentrations, often in twofold steps.

The term MBC denotes the lowest tested concentration that kills the bacteria rather than only halting them. `CC(C)C[C@H](NC(=O)CNC(=O)[C@H](CCCNC(=N)N)NC(=O)[C@@H]1CCCN1C(=O)[C@H](CCCNC(=N)N)NC(=O)[C@H](CCCNC(=N)N)NC(=O)[C@@H]1CCCN1C(=O)[C@H](CC(C)C)NC(=O)[C@H](C)NC(=O)[C@@H]1CCCN1C(=O)CNC(=O)[C@H](CC(C)C)NC(=O)CNC(=O)[C@@H](N)CCCNC(=N)N)C(=O)NCC(=O)N1CCC[C@H]1C(=O)N[C@@H](C)C(=O)N[C@@H](CC(C)C)C(=O)N1CCC[C@H]1C(=O)N[C@@H](CCCNC(=N)N)C(=O)N[C@@H](CCCNC(=N)N)C(=O)O` [P2Pro] (H-RGLGPALPRRPRGLGPALPRR-OH) gave an MBC in experiment [1] greater than 100 µg/mL.
In the case of `CC(C)C[C@H](NC(=O)CNC(=O)[C@H](CCCNC(=N)N)NC(=O)[C@@H]1CCCN1C(=O)[C@H](CCCNC(=N)N)NC(=O)[C@H](CCCNC(=N)N)NC(=O)[C@@H](NC(=O)[C@H](CC(C)C)NC(=O)[C@H](C)NC(=O)[C@H](CC(C)C)NC(=O)CNC(=O)[C@H](CC(C)C)NC(=O)CNC(=O)[C@H](CCCNC(=N)N)NC(=S)Nc1ccc2c(c1)C(=O)OC21c2ccc(O)cc2Oc2cc(O)ccc21)C(C)C)C(=O)NCC(=O)N[C@@H](CC(C)C)C(=O)N[C@@H](C)C(=O)N[C@@H](CC(C)C)C(=O)N[C@H](C(=O)N[C@@H](CCCNC(=N)N)C(=O)N[C@@H](CCCNC(=N)N)C(=O)O)C(C)C` [FITC-P2] ({FITC}-RGLGLALVRRPRGLGLALVRR-OH; N-terminus and C-terminus assumed), the “cells positive for FITC (peptide uptake)” value in experiment [2] (after 15 min, N = 4, mean and s.d.) is 97.7 ± 2.9%; in experiment [2] (after 1 h and beyond) it was roughly 100%. Besides, the “PI-positive cells (membrane permeabilization)” value is recorded as 2.1 ± 1.3% in experiment [2] (after 15 min) and 85 ± 13.2% in experiment [2] (after 3 h).
In general, MIC refers to the lowest concentration that inhibits growth of the organism. A low value points to a more susceptible organism. In the case of `CC(C)C[C@H](NC(=O)[C@H](C)NC(=O)[C@H](CCCNC(=N)N)NC(=O)[C@@H]1CCCN1C(=O)[C@H](CCCNC(=N)N)NC(=O)[C@H](CCCNC(=N)N)NC(=O)[C@H](CC(C)C)NC(=O)[C@H](CC(C)C)NC(=O)[C@@H](NC(=O)[C@@H](NC(=O)[C@H](CC(C)C)NC(=O)[C@H](CC(C)C)NC(=O)[C@H](C)NC(=O)[C@@H](N)CCCNC(=N)N)[C@@H](C)O)[C@@H](C)O)C(=O)N[C@@H](CC(C)C)C(=O)N[C@H](C(=O)N[C@H](C(=O)N[C@@H](CC(C)C)C(=O)N[C@@H](CC(C)C)C(=O)N[C@@H](CCCNC(=N)N)C(=O)N[C@@H](CCCNC(=N)N)C(=O)O)[C@@H](C)O)[C@@H](C)O` [P5] (H-RALLTTLLRRPRALLTTLLRR-OH), the MIC in experiment [3] turned out to be 6 µg/mL (≈ 2.4 µM). Further, in experiment [1], the MBC stood at 6 µg/mL (≈ 2.4 µM).
In experiment [3], `CC(C)C[C@H](NC(=O)CNC(=O)[C@H](CCCNC(=N)N)NC(=O)[C@@H]1CCCN1C(=O)[C@H](CCCNC(=N)N)NC(=O)[C@H](CCCNC(=N)N)NC(=O)[C@H](C)NC(=O)[C@H](CC(C)C)NC(=O)[C@H](CC(C)C)NC(=O)[C@H](C)NC(=O)[C@H](CC(C)C)NC(=O)[C@H](CC(C)C)NC(=O)CNC(=O)[C@@H](N)CCCNC(=N)N)C(=O)N[C@@H](CC(C)C)C(=O)N[C@@H](C)C(=O)N[C@@H](CC(C)C)C(=O)N[C@@H](CC(C)C)C(=O)N[C@@H](C)C(=O)N[C@@H](CCCNC(=N)N)C(=O)N[C@@H](CCCNC(=N)N)C(=O)O` [P14] (H-RGLLALLARRPRGLLALLARR-OH) returned an MIC of 6 µg/mL (≈ 2.55 µM). Further, the MBC in experiment [1] was determined as 6 µg/mL (≈ 2.55 µM).
For `CC(C)C[C@H](NC(=O)[C@H](C)NC(=O)[C@H](CCCNC(=N)N)NC(=O)[C@@H]1CCCN1C(=O)[C@H](CCCNC(=N)N)NC(=O)[C@H](CCCNC(=N)N)NC(=O)[C@H](CC(C)C)NC(=O)[C@H](CC(C)C)NC(=O)[C@@H](NC(=O)[C@@H](NC(=O)[C@H](CC(C)C)NC(=O)[C@H](CC(C)C)NC(=O)[C@H](C)NC(=O)[C@H](CCCNC(=N)N)NC(=O)[C@@H](N)CCCNC(=N)N)[C@@H](C)O)[C@@H](C)O)C(=O)N[C@@H](CC(C)C)C(=O)N[C@H](C(=O)N[C@H](C(=O)N[C@@H](CC(C)C)C(=O)N[C@@H](CC(C)C)C(=O)N[C@@H](CCCNC(=N)N)C(=O)N[C@@H](CCCNC(=N)N)C(=O)O)[C@@H](C)O)[C@@H](C)O` [P5R] (H-RRALLTTLLRRPRALLTTLLRR-OH), the minimal inhibitory concentration (MIC) in experiment [3] is 12 µg/mL (≈ 4.51 µM). The MBC in experiment [1] came to 12 µg/mL (≈ 4.51 µM).
In turn, `CC(C)C[C@H](NC(=O)[C@H](C)NC(=O)[C@@H](N)CCCNC(=N)N)C(=O)N[C@@H](CC(C)C)C(=O)N[C@@H](CCCNC(=N)N)C(=O)N[C@H](C(=O)N[C@@H](CC(C)C)C(=O)N[C@@H](CC(C)C)C(=O)N[C@@H](CCCNC(=N)N)C(=O)N[C@@H](CCCNC(=N)N)C(=O)N1CCC[C@H]1C(=O)N[C@@H](CCCNC(=N)N)C(=O)N[C@@H](C)C(=O)N[C@@H](CC(C)C)C(=O)N[C@@H](CC(C)C)C(=O)N[C@H](C(=O)N[C@H](C(=O)N[C@@H](CC(C)C)C(=O)N[C@@H](CC(C)C)C(=O)N[C@@H](CCCNC(=N)N)C(=O)N[C@@H](CCCNC(=N)N)C(=O)O)[C@@H](C)O)[C@@H](C)O)[C@@H](C)O` [P105] (H-RALLRTLLRRPRALLTTLLRR-OH) displayed an MIC in experiment [3] of 12 µg/mL (≈ 4.69 µM). Besides, the minimal bactericidal concentration (MBC) in experiment [1] was determined as 12 µg/mL (≈ 4.69 µM).

The values above are taken from PMC5830399, “Aggregating sequences that occur in many proteins constitute weak spots of bacterial proteostasis” (Nature Communications, 2018).
